Experimental data: US7674795B2, “Fluorene derivatives, composition containing said derivatives and the use thereof” (Aventis Pharma SA, priority 2005, dated 2010)
Counter-ions that a name gives are not always drawn.

Experiments:
Hsp82 = Hsp82 (Saccharomyces cerevisiae, UniProt P02829); assay: PK/LDH enzyme coupling test of the ATPase activity of Hsp82 (NADH decrease at 340 nm); type: biochemical; conditions: 1 μM Hsp82, 250 μM ATP, 37° C., pyruvate kinase/lactate dehydrogenase coupling, read-out: Hsp82 ATPase IC50
Summary of the method: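 Yeast Hsp82 ATPase was coupled to PK/LDH, with ADP formation followed continuously as NADH loss at 340 nm at 37 °C. The mixture was preincubated 30 min at 37 °C, and the reaction was started with compound at variable concentrations plus Hsp82 at 1 μM. Initial rates (μM ADP/min) came from the tangent slope at origin, expressed as % inhibition.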

Sequence of Hsp82 (P02829 whole entry): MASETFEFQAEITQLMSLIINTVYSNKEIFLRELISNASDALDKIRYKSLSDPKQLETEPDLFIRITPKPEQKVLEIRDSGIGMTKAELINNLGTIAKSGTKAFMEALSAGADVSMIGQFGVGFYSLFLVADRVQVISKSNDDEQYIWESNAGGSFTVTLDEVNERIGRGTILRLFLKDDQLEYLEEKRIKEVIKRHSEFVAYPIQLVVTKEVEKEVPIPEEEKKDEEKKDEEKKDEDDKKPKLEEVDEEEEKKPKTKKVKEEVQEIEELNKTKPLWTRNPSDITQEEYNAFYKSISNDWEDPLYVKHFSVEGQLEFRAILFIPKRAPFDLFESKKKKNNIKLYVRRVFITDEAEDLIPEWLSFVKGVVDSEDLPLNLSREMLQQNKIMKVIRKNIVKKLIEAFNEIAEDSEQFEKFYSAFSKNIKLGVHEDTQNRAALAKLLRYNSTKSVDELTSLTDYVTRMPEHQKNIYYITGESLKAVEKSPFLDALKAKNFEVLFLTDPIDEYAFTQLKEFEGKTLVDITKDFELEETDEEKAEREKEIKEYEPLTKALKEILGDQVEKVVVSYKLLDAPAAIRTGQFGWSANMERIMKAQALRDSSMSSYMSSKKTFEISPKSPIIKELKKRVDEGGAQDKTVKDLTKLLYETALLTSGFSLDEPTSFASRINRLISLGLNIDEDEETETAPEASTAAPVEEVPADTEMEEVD

Row | Compound | melting point | IC50 (Hsp82) [µM]
1 | O=C(NC1c2ccccc2-c2c(-c3nc4cnccc4[nH]3)cccc21)c1cccc2ncccc12 (racemic) [Example 14, [4-(3H-imidazo[4,5-c]pyridin-2-yl)-9H-fluoren-9(R,S)-yl]amide of quinoline-5-carboxylic acid] | 254 to 258 °C (dec.) | < 1
2 | NC1c2ccccc2-c2c(-c3nc4ccc(F)cc4[nH]3)cccc21 (racemic) [Example 71, 4-(6-fluoro-1H-benzimidazol-2-yl)-9H-fluoren-9(R,S)-ylamine] | 170 to 172 °C | 10 to 100
3 | O=C(NC1c2ccccc2-c2c(-c3nc4ccncc4[nH]3)cccc21)c1c[nH]c2ncccc12 (racemic) [Example 99, [4-(3H-imidazo[4,5-c]pyridin-2-yl)-9H-fluoren(R,S)-9-yl]amide of 1H-pyrrolo[2,3-b]pyridine-3-carboxylic acid] | 225 °C (dec.) | < 1
4 | O=C(NC1c2ccccc2-c2c(-c3nc4ccncc4[nH]3)cccc21)c1ccncc1F (racemic) [Example 114, 3-fluoro-N-[4-(3H-imidazo[4,5-c]pyridin-2-yl)-9H-fluoren-9(R,S)-yl]-isonicotinamide] | – | 1 to 10
5 | Nc1cccc(C(=O)NC2c3ccccc3-c3c(-c4nc5ccncc5[nH]4)cccc32)c1 (racemic) [Example 115, 3-amino-N-[4-(3H-imidazo[4,5-c]pyridin-2-yl)-9H-fluoren-9(R,S)-yl]-benzamide] | – | 10 to 100
6 | CNc1cc(C(=O)NC2c3ccccc3-c3c(-c4nc5ccncc5[nH]4)cccc32)ccn1 (racemic) [Example 116, N-[4-(3H-imidazo[4,5-c]pyridin-2-yl)-9H-fluoren-9(R,S)-yl]-2-methylamino-isonicotinamide] | – | 1 to 10
7 | O=C(NC1c2ccccc2-c2c(-c3nc4ccc(O)cc4[nH]3)cccc21)c1ccncc1 (racemic) [Example 117, N-[4-(6-hydroxy-1H-benzimidazol-2-yl)-9H-fluoren-9(R,S)-yl]-isonicotinamide] | – | 1 to 10
8 | O=C(NC1c2ccccc2-c2c(-c3nc4ccncc4[nH]3)cccc21)c1c(Br)cnc2[nH]cnc12 (racemic) [Example 118, [4-(3H-imidazo[4,5-c]pyridin-2-yl)-9H-fluoren-9(R,S)-yl]amide of 6-bromo-3H-imidazo[4,5-b]pyridine-7-carboxylic acid] | – | < 1
9 | O=C(NC1c2ccccc2-c2c(-c3nc4ccncc4[nH]3)cccc21)c1cc(N2CCCCC2)nc2ccccc12 (racemic) [Example 119, [4-(3H-imidazo[4,5-c]pyridin-2-yl)-9H-fluoren-9(R,S)-yl]amide of 2-piperidin-1-yl-quinoline-4-carboxylic acid] | – | 1 to 10
10 | O=C(NC1c2ccccc2-c2c(-c3nc4ccncc4[nH]3)cccc21)c1ccnc(N2CCCC2)c1 (racemic) [Example 120, N-[4-(3H-imidazo[4,5-c]pyridin-2-yl)-9H-fluoren-9(R,S)-yl]-2-pyrrolidin-1-yl-isonicotinamide] | – | 1 to 10
11 | Cc1cc(C(=O)NC2c3ccccc3-c3c(-c4nc5ccncc5[nH]4)cccc32)cc(O)n1 (racemic) [Example 121, 2-hydroxy-N-[4-(3H-imidazo[4,5-c]pyridin-2-yl)-9H-fluoren-9(R,S)-yl]-6-methyl-isonicotinamide] | – | 1 to 10
12 | O=C(OC1c2ccccc2-c2c(-c3nc4ccncc4[nH]3)cccc21)c1ccncc1 (racemic) [Example 122, 4-(3H-imidazo[4,5-c]pyridin-2-yl)-9H-fluoren-9(R,S)-yl ester of isonicotinic acid] | – | < 1
13 | O=C(OC1c2ccccc2-c2c(-c3nc4ccncc4[nH]3)cccc21)c1cccc2ncccc12 (racemic) [Example 124, 4-(3H-imidazo[4,5-c]pyridin-2-yl)-9H-fluoren-9(R,S)-yl of 5-quinolinecarboxylic acid] | – | 1 to 10
14 | CC(C)(C)OC(=O)Nc1cc(C(=O)NC2c3ccccc3-c3c(-c4nc5ccncc5[nH]4)cccc32)ccn1 (racemic) [Example 125, N-[4-(3H-imidazo[4,5-c]pyridin-2-yl)-9H-fluoren-9(R,S)-yl]amide of 2-tert-butoxycarbonylaminoisonicotinic acid] | – | < 1
15 | NC(=O)c1cccc(C(=O)NC2c3ccccc3-c3c(-c4nc5ccncc5[nH]4)cccc32)c1 (racemic) [Example 126, N-[4-(3H-imidazo[4,5-c]pyridin-2-yl)-9H-fluoren-9(R,S)-yl]isophthalamide] | – | 1 to 10
16 | COc1ccc(C(=O)NC2c3ccccc3-c3c(-c4nc5ccncc5[nH]4)cccc32)cc1 (racemic) [Example 127, N-[4-(3H-imidazo[4,5-c]pyridin-2-yl)-9H-fluoren-9(R,S)-yl]-4-methoxybenzamide] | 194 °C | –
17 | O=C(N[C@H]1c2ccccc2-c2c(-c3nc4ccncc4[nH]3)cccc21)c1cccc2ncccc12 (single isomer, unassigned) [Example 14A] | – | < 1
18 | O=C(N[C@H]1c2ccccc2-c2c(-c3nc4ccncc4[nH]3)cccc21)c1cccc2ncccc12 (single isomer, unassigned) [Example 14B] | – | 10 to 100

Row | Compound | melting point | IC50 (Hsp82) [µM]
19 | c1ccc2c(c1)Cc1cccc(-c3nc4cnccc4[nH]3)c1-2 [Example 7, 2-(9H-fluoren-4-yl)-3H-imidazo[4,5-c]pyridine] | – | 10 to 100
20 | O/N=C1\c2ccccc2-c2c1cccc2-c1nc2cnccc2[nH]1 [Example 19, 4-(3H-imidazo[4,5-c]pyridin-2-yl)-fluoren-9-one oxime (Z)] | – | 1 to 10
21 | O/N=C1/c2ccccc2-c2c1cccc2-c1nc2cnccc2[nH]1 [Example 23, 4-(3H-imidazo[4,5-c]pyridin-2-yl)-fluoren-9-one oxime (E)] | – | < 1
22 | NC(=O)NN=C1c2ccccc2-c2c1cccc2-c1nc2ccncc2[nH]1 [Example 30, trifluoroacetate of 4-(3H-imidazo[4,5-c]pyridin-2-yl)-fluoren-9-one semicarbazone (Z, E)] | – | 10 to 100
23 | CC(C)(C)OC(=O)N[C@@H](CC(N)=O)C(=O)NC1c2ccccc2-c2c(-c3nc4cnccc4[nH]3)cccc21 (stereo partly drawn) [Example 57, tert-butyl ester of {(S)-2-carbamoyl-1-[4-(3H-imidazo[4,5-c]pyridin-2-yl)-9H-fluoren-9(R,S)-ylcarbamoyl]-ethyl}-carbamoic acid] | – | 1 to 10
24 | CC(C)(C)OC(=O)N[C@H](CC(=O)NC1c2ccccc2-c2c(-c3nc4cnccc4[nH]3)cccc21)C(N)=O (stereo partly drawn) [Example 59, tert-butyl ester of {(R)-1-carbamoyl-2-[4-(3H-imidazo[4,5-c]pyridin-2-yl)-9H-fluoren-9(R,S)-ylcarbamoyl]-ethyl}-carbamoic acid] | – | 1 to 10
25 | CC(C)(C)OC(=O)N[C@H](CC(N)=O)C(=O)NC1c2ccccc2-c2c(-c3nc4cnccc4[nH]3)cccc21 (stereo partly drawn) [Example 61, tert-butyl ester of {(R)-2-carbamoyl-1-[4-(3H-imidazo[4,5-c]pyridin-2-yl)-9H-fluoren-9(R,S)-ylcarbamoyl]-ethyl}-carbamoic acid] | – | 1 to 10
26 | NC(=O)C[C@H](N)C(=O)NC1c2ccccc2-c2c(-c3nc4cnccc4[nH]3)cccc21 (stereo partly drawn) [Example 63, hydrochloride of (S)-2-amino-N1-[4-(3H-imidazo[4,5-c]pyridin-2-yl)-9H-fluoren-9(R,S)-yl]-succinamide] | – | 1 to 10
27 | NC(=O)C[C@@H](N)C(=O)NC1c2ccccc2-c2c(-c3nc4cnccc4[nH]3)cccc21 (stereo partly drawn) [Example 65, hydrochloride of (R)-2-amino-N1-[4-(3H-imidazo[4,5-c]pyridin-2-yl)-9H-fluoren-9(R,S)-yl]-succinamide] | – | 1 to 10
28 | O=C1c2ccccc2-c2c1cccc2-c1nc2ccc(F)cc2[nH]1 [Example 69, 4-(6-fluoro-1H-benzimidazol-2-yl)-fluoren-9-one] | – | 10 to 100
29 | O=C(NC1c2ccccc2-c2c(-c3nc4ccncc4[nH]3)cccc21)c1cc(C2CC2)nc2ccccc12 (centres unmarked) [Example 85, [4-(3H-imidazo[4,5-c]pyridin-2-yl)-9H-fluoren-9-yl]amide of 2-cyclopropyl-quinoline-4-carboxylic acid] | – | 1 to 10
30 | O=C(NC1c2ccccc2-c2c(-c3nc4ccncc4[nH]3)cccc21)c1ccnnc1 (centres unmarked) [Example 86, [4-(3H-imidazo[4,5-c]pyridin-2-yl)-9H-fluoren-9-yl]amide of pyridazine-4-carboxylic acid] | – | 1 to 10
31 | O=C(NC1c2ccccc2-c2c(-c3nc4ccncc4[nH]3)cccc21)c1cc(O)nc(O)n1 (centres unmarked) [Example 88, [4-(3H-imidazo[4,5-c]pyridin-2-yl)-9H-fluoren-9-yl]amide of 2,6-dihydroxypyrimidine-4-carboxylic acid] | – | 1 to 10
32 | O=C(NC1c2ccccc2-c2c(-c3nc4ccncc4[nH]3)cccc21)c1ccnc(O)n1 (centres unmarked) [Example 89, [4-(3H-imidazo[4,5-c]pyridin-2-yl)-9H-fluoren-9-yl]amide of 2-hydroxypyrimidine-4-carboxylic acid] | – | 1 to 10
33 | Cc1ccc2c(C(=O)NC3c4ccccc4-c4c(-c5nc6ccncc6[nH]5)cccc43)cccc2n1 (centres unmarked) [Example 90, [4-(3H-imidazo[4,5-c]pyridin-2-yl)-9H-fluoren-9-yl]amide of 2-methyl-quinoline-5-carboxylic acid] | – | 1 to 10
34 | Nc1nccc(C(=O)NC2c3ccccc3-c3c(-c4nc5ccncc5[nH]4)cccc32)n1 (centres unmarked) [Example 91, [4-(3H-imidazo[4,5-c]pyridin-2-yl)-9H-fluoren-9-yl]amide of 2-amino-pyrimidine-4-carboxylic acid] | – | < 1
35 | O=C(NC1c2ccccc2-c2c(-c3nc4ccncc4[nH]3)cccc21)c1cc(O)ncn1 (centres unmarked) [Example 93, [4-(3H-imidazo[4,5-c]pyridin-2-yl)-9H-fluoren-9-yl]amide of 6-hydroxypyrimidine-4-carboxylic acid] | – | 1 to 10
